Experimental data taken from ChEMBL document CHEMBL1201862, “PubChem BioAssay data set” (2004).
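Values below derive from 48-hour exposures of cells grown in 96-well plates, with endpoints linearly interpolated between the two concentrations bracketing the appropriate inhibition level. At the GI50, growth is halved.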 Activity calls are given as the source filed them. Cut-off read from the data, not from the text of the source: active = GI50 up to about 1.1 µM and inactive = higher.

How the values were obtained:
Experiment in all cases: growth of human tumour cells (NCI), 48 h
A549 = system: A549
Malme-3M = system: Malme-3M
SK-OV-3 = system: SK-OV-3
HOP-92 = system: HOP-92
786-0 = system: 786-0
SN12C = system: SN12C
SK-MEL-2 = system: SK-MEL-2
IGROV-1 = system: IGROV-1
NCI-H23 = system: NCI-H23
UACC-62 = system: UACC-62
SF-539 = system: SF-539
COLO 205 = system: COLO 205
HL-60 = system: HL-60
OVCAR-8 = system: OVCAR-8
HOP-62 = system: HOP-62
U-251 = system: U-251
SF-268 = system: SF-268
K562 = system: K562
NCI-H226 = system: NCI-H226
SNB-75 = system: SNB-75

SMILES | GI50 (A549) | GI50 (Malme-3M) | GI50 (SK-OV-3) | GI50 (HOP-92) | GI50 (786-0) | GI50 (SN12C) | GI50 (SK-MEL-2) | GI50 (IGROV-1) | GI50 (NCI-H23) | GI50 (UACC-62) | GI50 (SF-539) | GI50 (COLO 205) | GI50 (HL-60) | GI50 (OVCAR-8) | GI50 (HOP-62) | GI50 (U-251) | GI50 (SF-268) | GI50 (K562) | GI50 (NCI-H226) | GI50 (SNB-75)
OCCCN=C1CCCCC1 | > 100 µM (inactive) | > 100 µM (inactive) | > 100 µM (inactive) | > 100 µM (inactive) | > 100 µM (inactive) | > 100 µM (inactive) | 56.8 µM (inactive) | > 100 µM (inactive) | > 100 µM (inactive) | > 100 µM (inactive) | > 100 µM (inactive) | > 100 µM (inactive) | > 100 µM (inactive) | > 100 µM (inactive) | > 100 µM (inactive) | > 100 µM (inactive) | > 100 µM (inactive) | > 100 µM (inactive) | > 100 µM (inactive) | –
CN(C)Nc1cc(=O)[nH]c(=O)[nH]1 | > 100 µM (inactive) | > 100 µM (inactive) | – | > 100 µM (inactive) | > 100 µM (inactive) | > 100 µM (inactive) | – | > 100 µM (inactive) | – | – | > 100 µM (inactive) | > 100 µM (inactive) | > 100 µM (inactive) | > 100 µM (inactive) | > 100 µM (inactive) | > 100 µM (inactive) | > 100 µM (inactive) | > 100 µM (inactive) | > 100 µM (inactive) | –
COc1cc(CNc2nc3ccccc3n2Cc2ccccc2)cc(CN2CCOCC2)c1O | 47.5 µM (inactive) | 19.1 µM (inactive) | 96.8 µM (inactive) | 12.1 µM (inactive) | 16.7 µM (inactive) | 44.2 µM (inactive) | 22.4 µM (inactive) | 52 µM (inactive) | 60.7 µM (inactive) | 22.9 µM (inactive) | 20 µM (inactive) | 20.9 µM (inactive) | – | 32.1 µM (inactive) | 28.6 µM (inactive) | 31.2 µM (inactive) | 59.8 µM (inactive) | 21.5 µM (inactive) | 30.8 µM (inactive) | 27.9 µM (inactive)
CCOC(=O)/C(C#N)=C/c1ccnc2ccccc12 | > 100 µM (inactive) | 37.1 µM (inactive) | > 100 µM (inactive) | 40.2 µM (inactive) | 61.9 µM (inactive) | 76.4 µM (inactive) | > 100 µM (inactive) | 40.2 µM (inactive) | 31.8 µM (inactive) | > 100 µM (inactive) | 20.2 µM (inactive) | > 100 µM (inactive) | – | 10.4 µM (inactive) | > 100 µM (inactive) | > 100 µM (inactive) | > 100 µM (inactive) | – | > 100 µM (inactive) | > 100 µM (inactive)
CC1(C)OC(=O)C(=Cc2ccc(O)cc2)C(=O)O1 | > 100 µM (inactive) | > 100 µM (inactive) | > 100 µM (inactive) | > 100 µM (inactive) | > 100 µM (inactive) | > 100 µM (inactive) | > 100 µM (inactive) | > 100 µM (inactive) | > 100 µM (inactive) | > 100 µM (inactive) | > 100 µM (inactive) | > 100 µM (inactive) | > 100 µM (inactive) | > 100 µM (inactive) | > 100 µM (inactive) | > 100 µM (inactive) | > 100 µM (inactive) | > 100 µM (inactive) | > 100 µM (inactive) | –
CCOC(=O)c1c(N2CCOCC2)[nH]c(=O)c(C(c2ccco2)c2c(O)c(C(=O)OCC)c(N3CCOCC3)[nH]c2=O)c1O | > 100 µM (inactive) | > 100 µM (inactive) | > 100 µM (inactive) | 80.9 µM (inactive) | > 100 µM (inactive) | > 100 µM (inactive) | > 100 µM (inactive) | – | > 100 µM (inactive) | > 100 µM (inactive) | > 100 µM (inactive) | > 100 µM (inactive) | – | > 100 µM (inactive) | > 100 µM (inactive) | > 100 µM (inactive) | > 100 µM (inactive) | > 100 µM (inactive) | > 100 µM (inactive) | > 100 µM (inactive)
COc1cc(C2=NNC(=O)c3ccccc3N2c2nc(-c3cccs3)nc3ccc(Br)cc23)cc(OC)c1OC | 18.6 µM (inactive) | 17.3 µM (inactive) | 65.6 µM (inactive) | 4.83 µM (inactive) | 6.95 µM (inactive) | 18.9 µM (inactive) | 31.2 µM (inactive) | 10.8 µM (inactive) | 7.11 µM (inactive) | 12.4 µM (inactive) | 10.9 µM (inactive) | 5.24 µM (inactive) | – | 4.62 µM (inactive) | 15.6 µM (inactive) | 6.1 µM (inactive) | 8.91 µM (inactive) | – | 36.1 µM (inactive) | 55 µM (inactive)
O=C1CSC(c2cccc([N+](=O)[O-])c2)N1c1ccc(-c2ccc(-n3c(-c4ccccc4)nc4ccccc4c3=O)cc2)cc1 (centres undefined) | 34.6 µM (inactive) | 29.8 µM (inactive) | > 100 µM (inactive) | > 100 µM (inactive) | 24.6 µM (inactive) | 48.6 µM (inactive) | 29.2 µM (inactive) | 35.3 µM (inactive) | 59.8 µM (inactive) | 28.8 µM (inactive) | 46.5 µM (inactive) | 21.1 µM (inactive) | 19.5 µM (inactive) | 40.7 µM (inactive) | 63.7 µM (inactive) | 33.5 µM (inactive) | 41.1 µM (inactive) | 24.7 µM (inactive) | 44.1 µM (inactive) | –
N#Cc1sc2nc3c(c(-c4ccccc4)c2c1N)CCCC3 | > 100 µM (inactive) | > 100 µM (inactive) | 39.4 µM (inactive) | 30.1 µM (inactive) | 46 µM (inactive) | > 100 µM (inactive) | > 100 µM (inactive) | – | > 100 µM (inactive) | > 100 µM (inactive) | 23.9 µM (inactive) | – | > 100 µM (inactive) | > 100 µM (inactive) | > 10 µM (inactive) | 39.8 µM (inactive) | – | > 100 µM (inactive) | > 100 µM (inactive) | –
CC12C=C[C@]3(CC[C@@H]4[C@@](C)(CO)CCC[C@]4(C)C3CC1)C2 (some centres undefined) | 18.2 µM (inactive) | 20.5 µM (inactive) | 18.7 µM (inactive) | > 47.3 µM (inactive) | 16 µM (inactive) | 18.2 µM (inactive) | 17.3 µM (inactive) | 17.5 µM (inactive) | 18 µM (inactive) | 15.8 µM (inactive) | 16.4 µM (inactive) | 16.4 µM (inactive) | 17.9 µM (inactive) | 21.4 µM (inactive) | 14.6 µM (inactive) | 16.6 µM (inactive) | 17.9 µM (inactive) | 17.5 µM (inactive) | – | > 10 µM (inactive)
NC(CCC(=O)c1ccccn1)C(=O)O (centres undefined) | > 100 µM (inactive) | > 100 µM (inactive) | > 100 µM (inactive) | > 100 µM (inactive) | > 100 µM (inactive) | > 100 µM (inactive) | > 100 µM (inactive) | > 100 µM (inactive) | > 100 µM (inactive) | > 100 µM (inactive) | > 100 µM (inactive) | > 100 µM (inactive) | > 100 µM (inactive) | > 100 µM (inactive) | > 100 µM (inactive) | > 100 µM (inactive) | > 100 µM (inactive) | – | > 100 µM (inactive) | –
C=CCN1C(=O)/C(=C/c2ccccc2)N=C1SC/C=C/C | 39.3 µM (inactive) | – | > 100 µM (inactive) | 12.2 µM (inactive) | 42.7 µM (inactive) | 40.2 µM (inactive) | 26.2 µM (inactive) | > 100 µM (inactive) | 58.7 µM (inactive) | 51.5 µM (inactive) | > 100 µM (inactive) | 52.2 µM (inactive) | – | 45.1 µM (inactive) | > 100 µM (inactive) | 48.1 µM (inactive) | 57.9 µM (inactive) | 0.0146 µM (active) | 31.8 µM (inactive) | 46.2 µM (inactive)
CCOC(=O)[C@@H]1C[C@@H]1c1ccc(O)c(O)c1 | 29.4 µM (inactive) | 49.2 µM (inactive) | 44.8 µM (inactive) | 36.7 µM (inactive) | 16.1 µM (inactive) | 78.2 µM (inactive) | 29.7 µM (inactive) | 35.3 µM (inactive) | 43.4 µM (inactive) | 13.4 µM (inactive) | 20.6 µM (inactive) | 27.4 µM (inactive) | – | 21.8 µM (inactive) | 17.6 µM (inactive) | 72.1 µM (inactive) | 30.8 µM (inactive) | 13.8 µM (inactive) | 22.5 µM (inactive) | –
CC(c1ccccc1)N1O[C@]12CC[C@@]1(C)C(CCCC13OCCO3)C2 (some centres undefined) | 24.5 µM (inactive) | 32.1 µM (inactive) | > 100 µM (inactive) | 11.1 µM (inactive) | 19.4 µM (inactive) | 29 µM (inactive) | – | 3.72 µM (inactive) | 38.4 µM (inactive) | 19.6 µM (inactive) | 56.2 µM (inactive) | 17.8 µM (inactive) | – | 16.7 µM (inactive) | > 100 µM (inactive) | 21.1 µM (inactive) | 43.6 µM (inactive) | – | > 100 µM (inactive) | 22.1 µM (inactive)
O=C(OC[C@H]1O[C@@H](OC(=O)c2cc(O)c(O)c(O)c2)[C@H](OC(=O)c2cc(O)c(O)c(O)c2)[C@@H](OC(=O)c2cc(O)c(O)c(O)c2)[C@@H]1OC(=O)c1cc(O)c(O)c(O)c1)c1cc(O)c(O)c(O)c1 [PENTAGALLOYL GLUCOSE] | 3.54 µM (inactive) | – | 6.17 µM (inactive) | 5.58 µM (inactive) | 4.99 µM (inactive) | 11.9 µM (inactive) | 10.7 µM (inactive) | 5.73 µM (inactive) | 2.16 µM (inactive) | 2.26 µM (inactive) | 2.49 µM (inactive) | 4.98 µM (inactive) | 3.65 µM (inactive) | 5.22 µM (inactive) | 3.89 µM (inactive) | 5.33 µM (inactive) | 4.57 µM (inactive) | 47.2 µM (inactive) | 1.49 µM (inactive) | –
